The record followed here is patent publication US20230056057A1, “HERBICIDE CO[…] MONOETHANOLAMINE SALT AND A PPO-INHIBITOR” (MONSANTO TECHNOLOGY LLC, priority 2020, published 2023).

Where a name gives a salt, the structure may show the parent alone.

For `COc1c(Cl)ccc(Cl)c1C(=O)O.NCCOCCO` [dicamba DGA salt, diglycolamine (DGA) salt of dicamba], the “crystallization at higher loadings” value (higher loadings) is “crystallizes out”.
Take `COc1c(Cl)ccc(Cl)c1C(=O)O` [dicamba EA salt, dicamba monoethanolamine salt]: the “tendency to salt out” value (at higher concentrations, compared to the dicamba DGA salt) is given as “less tendency to salt out”.
